This passage reports TGI and GI50 results from PubChem BioAssay (NCI).

Assay in all cases: DTP human tumour cell line panel, 48 h
Test [1] relates to CAKI-1 renal.
The subject of test [2] is SR leukemia.
Test [3] has as its system OVCAR-3 ovarian.
Test [4] relates to LOX IMVI melanoma.
Test [5] concerns U251 CNS.
Test [6] relates to A549 NSCLC.
Test [7] concerns HOP-92 NSCLC.
Test [8] has as its system UACC-62 melanoma.
Test [9] concerns SK-MEL-28 melanoma.

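Values below derive from 48-hour exposures of cells grown in 96-well plates, with endpoints linearly interpolated between the two concentrations bracketing the appropriate inhibition level. The concentration for 50% growth inhibition is given as GI50. TGI: concentration producing complete growth inhibition.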 A value given as a limit tells only on which side of the number the result lay.

In the case of `COc1cc(-c2cc(-c3ccccc3)nc(-c3c(OC)ccc4c(C)cc(=O)oc34)c2)cc(OC)c1OC`, the total growth inhibition concentration (TGI) in test [1], in [2], in [3], in [4], in test [5] and in test [6] was greater than 100 µM in each case. The TGI in test [7] and in [8] was greater than 100 µM in each case.

In the case of `COc1ccc(-n2cnc3c2NC(C)(C)N=C3C(N)=O)c(OC)c1`, the total growth inhibition concentration (TGI) in test [1], in test [2], in test [3], in test [4], in test [5] and in [6] was greater than 100 µM in each case. Besides, the concentration for total growth inhibition (TGI) in [9], in test [7] and in test [8] was greater than 100 µM throughout.

On to `COc1ccc(C(=O)c2sc(Nc3ccc(Cl)cc3)nc2N)cc1`, for which the total growth inhibition concentration (TGI) is 42.2 µM in test [1]; greater than 45.2 µM in test [2]; 35 µM in test [3]; greater than 100 µM in test [4]; greater than 55.5 µM in test [5]; greater than 59.6 µM in [6]. Further, the TGI in [9] was greater than 100 µM; in [7], greater than 63.5 µM; in test [8], greater than 100 µM.

For the molecule `CCOP(=O)(OCC)C(Nc1ccc(Br)cc1)c1cccc([N+](=O)[O-])c1` (stereo not drawn), the TGI amounted to 49.7 µM in test [1]; 56.2 µM in [2]; 35.6 µM in test [3]; 23.3 µM in test [4]; 36.1 µM in [5]; 34.7 µM in [6]. The figures for the total growth inhibition concentration (TGI) in test [9], in test [7] and in [8] were 60 µM, 42.2 µM and 29.6 µM, respectively.

Regarding `O=c1c2nc3ccccc3c(=O)n2ncn1-c1ccccc1Cl`, the total growth inhibition concentration (TGI) in test [1], in test [2], in test [3], in test [4], in test [5] and in test [6] was greater than 100 µM each time. Also, the TGI in test [9], in [7] and in test [8] was greater than 100 µM in each case.

`Brc1cc(CCOC2CCCCO2)c(-c2sccc2CCOC2CCCCO2)s1` (stereo not drawn): the total growth inhibition concentration (TGI) was greater than 100 µM in [1]; 49.1 µM in test [2]; greater than 100 µM in test [3]; greater than 71.2 µM in test [4]; greater than 100 µM in test [5]; greater than 100 µM in test [6]. The total growth inhibition concentration (TGI) in [9], in test [7] and in test [8] was greater than 100 µM throughout.

With `O=C(c1cccs1)N(C(=S)OC12CC3CC(CC(C3)C1)C2)c1ccccc1`, the TGI in [1] was greater than 100 µM; in [2], greater than 100 µM; in test [3], greater than 100 µM; in test [4] it was 92.9 µM; in [5], greater than 100 µM; in test [6], greater than 100 µM. In addition, the TGI in [9] is greater than 100 µM; in test [7], greater than 100 µM; in test [8], 84.8 µM.

Turning to `CCOC(=O)c1cn2c(n1)sc1c(Cl)c(Cl)ccc12`, the TGI in test [1] is 65.3 µM; in test [2], greater than 55.2 µM; in test [3] it was greater than 58.1 µM; in test [4], greater than 100 µM; in test [5], greater than 100 µM; in test [6], greater than 100 µM. The TGI in test [9], in test [7] and in test [8] was greater than 100 µM each time.

In the case of `CC(C)(C)c1cc(C2=NNC(c3ccccc3)C2)cc(C(C)(C)C)c1O` (stereo not drawn), the total growth inhibition concentration (TGI) came to 28.2 µM in [1]; 27.5 µM in [2]; 14.6 µM in test [3]; 29.6 µM in test [4]; 28.8 µM in test [5]; 34.5 µM in test [6]. For the same molecule, the TGI in [9] amounted to 31.5 µM; in [7] it was 31.2 µM; in test [8] it was 28 µM.

Regarding `COc1cc2c(cc1OC)C(=O)/C(=C/c1ccc(Cl)cc1)CC2`, the concentration for total growth inhibition (TGI) in test [1], in [2], in test [3], in test [4], in test [5] and in test [6] was greater than 10 µM throughout. The TGI in test [9], in [7] and in [8] was greater than 10 µM in each case.

In the case of `CCCCCCC(=O)O[C@H]1CC[C@H]2[C@@H]3CCC4C/C(=N/NC(=O)c5cccc6c(=O)c7ccccc7[nH]c56)C=C(C)[C@]4(C)[C@H]3CC[C@]12C` (stereo partly drawn), the TGI in test [1], in [2], in [3], in [4], in test [5] and in test [6] was greater than 25 µM in each case. Also, the TGI in [7] and in [8] was greater than 25 µM throughout.

With `Cc1nn(C(=O)c2ccc(Cl)cc2)c2c1C(c1ccccc1[N+](=O)[O-])SC(N)=N2` (stereo not drawn), the concentration for total growth inhibition (TGI) in [1], in [2], in [3], in test [4], in test [5] and in [6] was greater than 10 µM throughout. The concentration for total growth inhibition (TGI) in test [7] and in [8] was greater than 10 µM each time.

For `Cn1c2ccc3cc2c(=S)c2cc(ccc21)OCCOCCOCCOCCOCCO3`, the TGI in test [1], in [2], in test [3], in test [4], in test [5] and in [6] was greater than 10 µM each time. Also, the TGI in test [9], in test [7] and in test [8] was greater than 10 µM in each case.

Take `CC1CC[C@@]2(OC1)OC1C[C@H]3[C@@H]4CC=C5CC(OC6OC(CO)C(OC7OC(CO)C(O)C(OC8OCC(O)C(O)C8O)C7OC7OC(CO)C(O)C(O)C7O)C(O)C6O)CCC5(C)[C@H]4CCC3(C)C1[C@@H]2C` (stereo partly drawn): the total growth inhibition concentration (TGI) came out at 10.3 µM in [1]; 17.7 µM in test [2]; 9.25 µM in [3]; 8.53 µM in test [4]; 8.72 µM in [5]; 8.01 µM in [6]. Besides, the total growth inhibition concentration (TGI) in test [9], in test [7] and in [8] was greater than 25 µM each time.

Take `CCCNC(=O)CCC(C)C1CCC2C3C(C[C@H](OC(C)=O)[C@]12C)[C@@]1(C)CCC2(C[C@H]1C[C@H]3OC(C)=O)OOC1(CC[C@]3(C)C4C[C@H](OC(C)=O)[C@]5(C)C(C(C)CCC(=O)NCCC)CCC5C4[C@H](OC(C)=O)C[C@@H]3C1)OO2` (stereo partly drawn): the TGI in [1], in test [2], in [3], in test [4], in test [5] and in [6] was greater than 100 µM throughout. Further, the concentration for total growth inhibition (TGI) in test [9] is greater than 100 µM; in [7], greater than 68.4 µM; in test [8] it was greater than 100 µM. In addition, the GI50 was 7.51 µM in [7] and greater than 67 µM in [8].

Regarding `O=C(CCc1ccc(O)c(O)c1)NCCc1cc(O)cc(O)c1`, the TGI in test [1], in test [2], in test [3], in test [4], in [5] and in test [6] was greater than 100 µM each time. The TGI in [9], in test [7] and in test [8] was greater than 100 µM each time.

With `COc1cc(OC)nc(-n2c(N)c(C#N)c3ccc([N+](=O)[O-])cc3c2=O)n1`, the concentration for total growth inhibition (TGI) in test [1], in [2], in test [3], in [4], in test [5] and in test [6] was greater than 100 µM each time. The concentration for total growth inhibition (TGI) in test [9], in test [7] and in test [8] was greater than 100 µM throughout.

`Nc1cccc(/C=C/C(=O)N2CCN(CCOC(c3ccccc3)c3ccccc3)CC2)c1`: the total growth inhibition concentration (TGI) in test [1] turned out to be 34.8 µM; in test [2], 30.9 µM; in test [3] it was 32 µM; in test [4], 32.2 µM; in [5] it was 29.3 µM; in test [6] it was 34.3 µM. The values for the TGI in test [9], in [7] and in [8] were 28.9 µM, 26.2 µM and 29.6 µM, respectively.

Regarding `C[C@H](NC(=O)c1ccc(CNC(=O)/C=C/c2cccc(Oc3ccccc3)c2)cc1)c1ccccc1`, the TGI in test [1] is 59.5 µM; in [2], greater than 100 µM; in test [3], greater than 100 µM; in test [4] it was greater than 100 µM; in [5], greater than 100 µM; in [6], greater than 100 µM. Moreover, the concentration for total growth inhibition (TGI) in test [9], in test [7] and in test [8] was greater than 100 µM in each case.

With `CC(=O)O[C@H]1C(=O)[C@@]2(C)[C@H]([C@H](OC(=O)c3ccccc3)[C@]3(O)C[C@H](OC(=O)[C@H](O)[C@@H](NC(=O)c4cccc(N=[N+]=[N-])c4)c4ccccc4)C(C)=C1C3(C)C)[C@]1(OC(C)=O)CO[C@@H]1C[C@@H]2O`, the TGI is greater than 25 µM in test [1]; 0.162 µM in test [2]; greater than 25 µM in [4]; 0.635 µM in test [5]; greater than 25 µM in [6]; greater than 22.8 µM in test [9]. Besides, the TGI in [7] was greater than 23.9 µM; in test [8], greater than 15.9 µM.

Consider `COC(=O)C1CN=CN1CCc1ccccc1` (stereo not drawn), for which the TGI in test [1], in test [2], in [3], in [4], in test [5] and in [6] was greater than 100 µM throughout. Besides, the total growth inhibition concentration (TGI) in test [9], in [7] and in [8] was greater than 100 µM each time.

`COc1cc(CO)c(CC(=O)NCCCc2ccccc2)cc1OC`: the TGI in test [1], in test [2], in test [3], in [4], in test [5] and in test [6] was greater than 100 µM each time. For the same molecule, the TGI in [9], in test [7] and in test [8] was greater than 100 µM in each case.

Regarding `CC(C)(C)OC(=O)N1CCC(C(=O)O)CC1`, the total growth inhibition concentration (TGI) in test [1], in test [2], in [3], in test [4], in test [5] and in test [6] was greater than 100 µM in each case. Further, the total growth inhibition concentration (TGI) in test [9], in test [7] and in [8] was greater than 100 µM each time.

For the molecule `C=CCOC(=O)NC1C(OC(C)[C@@H](NC(=O)OCc2ccccc2)C(=O)OC(C)(C)C)OC(COC(C)=O)C(OC(C)=O)C1OC(C)=O` (stereo partly drawn), the concentration for total growth inhibition (TGI) in test [1], in test [2], in test [3], in test [4], in test [5] and in test [6] was greater than 100 µM throughout. The TGI in [9], in test [7] and in test [8] was greater than 100 µM throughout.

Consider `C=CCc1cccc2cc(C(=O)Nc3ccccc3)c(=N)oc12`, for which the total growth inhibition concentration (TGI) in [1], in test [2], in test [3], in test [4], in [5] and in test [6] was greater than 100 µM each time. The concentration for total growth inhibition (TGI) in test [9], in [7] and in [8] was greater than 100 µM in each case.

`Clc1cc(Cl)cc(C=NC23CC4CC(CC(C4)C2)C3)c1`: the TGI in test [1], in test [2], in [3], in test [4], in test [5] and in [6] was greater than 10 µM in each case. Further, the concentration for total growth inhibition (TGI) in [9], in [7] and in [8] was greater than 10 µM throughout.

For the molecule `Cn1c(O)c(C=Nc2ccccc2[N+](=O)[O-])c(=O)n(C)c1=O`, the TGI in [1], in test [2], in test [3], in test [4], in test [5] and in test [6] was greater than 100 µM in each case. Besides, the concentration for total growth inhibition (TGI) in test [7] and in test [8] was greater than 100 µM each time.

As to `COc1ccc(-n2c(=O)[nH]n(C(C)=O)c2=O)cc1`, the TGI in test [1], in test [2], in [4], in test [5], in test [6] and in test [9] was greater than 100 µM throughout. Also, the total growth inhibition concentration (TGI) in test [7] and in test [8] was greater than 100 µM throughout.

Broadly, the TGI is the concentration giving total growth inhibition. A lower TGI goes with greater sensitivity of the cells. By GI50 is commonly meant the concentration that inhibits growth by half.
